This is an account of results in PMC12736018, “Stereoselective Cytotoxicity of Enantiopure 3,3-Dichloro-γ-lactams: Correlating In Vitro Activity with In Vivo Tolerability” (Molecules, 2025).

Values after ≈ are worked out from the molar mass of the structure shown.

One may read the IC50 as the concentration that inhibits the measured activity by half. Usually viability stands for a per cent measure of how many cells are alive, often set against a control. The low end stands for more harm to the cells, the high end for less harm to the cells. A word on the LC50: it is the concentration lethal to half of the exposed cells or organisms.

In data set [1] the test system is different cell lines. Further details: method as in PMID 38731527. Particulars: across different cell lines, racemic form; cited from earlier work.
For data set [2], the system named is A431 cells. The data set can be described thus: MTT cell viability assay, A431. Particulars: Homo sapiens, A-431, 24 h. The data set is classed as cell-based. The method, then:
(§1) The murine Swiss albino fibroblast (3T3), the immortal human keratinocyte (HaCaT), the squamous cell carcinoma (A431), the human epithelial carcinoma (HeLa) and the human breast adenocarcinoma (MCF-7) cell lines were sourced from Celltec UB (Barcelona, Spain). All cells were maintained and grown in DMEM medium (4.5 g/L glucose) supplemented with 10% (v/v) FBS, 2 mM L-glutamine, 100 U/mL penicillin and 100 μg/mL streptomycin at 37 °C, 5% CO2. Cells were routinely cultured in 75 cm^2 culture flasks and were trypsinized using trypsin-EDTA when the cells reached approximately 80%. Cell concentration in the resulting suspension was assessed using the trypan blue assay, which enables direct discrimination between viable (unstained) and non-viable (blue) cells.
(§2) T3 and HaCaT cells (1 × 10^5 cells/mL), along with A431, HeLa, and MCF-7 cells (5 × 10^4 cells/mL), were cultured at defined seeding densities in the 60 central wells of a 96-well plate. Cells were first incubated for 24 h under standard incubator conditions (5% CO2, 37 °C). After this period, the culture medium was removed, and the cells were incubated for an additional 24 h with their corresponding compound solutions (1 mg/mL) previously diluted in a minimum amount of DMF (dimethylformamide) and then in DMEM medium supplemented with 5% FBS (100 µL) at the required concentration range (20 to 250 µg/mL). Cell viability following exposure to the lactam derivatives was evaluated using two complementary assays: NRU and MTT.
(§3) Only living cells can reduce the yellow tetrazolium salt 3-(4,5-dimethyl-2-thiazolyl)-2,5-diphenyltetrazolium bromide (MTT) to insoluble purple formazan crystals. After a 24 h incubation of the cells with their corresponding NPs, the medium was removed and 100 µL of MTT (Sigma-Aldrich, St. Louis, MO, USA) in PBS (5 mg/mL) diluted 1:10 in culture medium without phenol red and without FBS (Lonza, Verviers, Belgium) was added to the cells. After 3 h of incubation, the medium was removed. Thereafter, 100 µL of DMSO (Sigma-Aldrich, St. Louis, MO, USA) was added to each well to dissolve the purple formazan crystals. Agitation and absorbance measurements of the extracted solution were carried out under the same conditions described for the NRU assay. The effect of each treatment was then expressed as the percentage of tetrazolium salt reduction by viable cells relative to untreated controls.
(§4) The half-maximal inhibitory concentration (IC50) values for the different formulations, across cell lines and experimental endpoints, were obtained by fitting the concentration-dependent viability curves. […] These findings reflect the very low cytotoxicity of the compounds toward these cell lines.
Background: Formazan colour is commonly taken as a measure of viable cells.

Data set [3] can be described thus: Cell viability assays (MTT and NRU), summary across the cell panel. The data set is classed as cell-based. Particulars: MTT, most cell lines, highest tested concentration. The method, then: as §1, §2
(§5) The neutral red uptake (NRU) assay is based on the accumulation of dye in the lysosomes of viable cells. After the cells were incubated for 24 h with the corresponding systems, the medium was removed, and the solutions were incubated with the NR dye (Sigma-Aldrich, St. Louis, MO, USA) solution (50 µg/mL) dissolved in the medium, without FBS and without phenol red (Lonza, Verviers, Belgium), for 3 h. […] The absorbance of the resulting solutions was measured at 550 nm (Bio-Rad 550 microplate reader, Bio-Rad California, Hercules, CA, USA). Finally, the effect of each treatment was calculated as the percentage of dye uptake by viable cells relative to the control cells (cells without any treatment). […]
(§6) Only living cells can reduce the yellow tetrazolium salt 3-(4,5-dimethyl-2-thiazolyl)-2,5-diphenyltetrazolium bromide (MTT) to insoluble purple formazan crystals. […] Agitation and absorbance measurements of the extracted solution were carried out under the same conditions described for the NRU assay. The effect of each treatment was then expressed as the percentage of tetrazolium salt reduction by viable cells relative to untreated controls. […]

Data set [4] has as its system 3T3, HaCaT, A431, HeLa and MCF-7 cells. Described as above. The note with it: for IC50: MTT and NRU, summary statement over cell lines. The data set is classed as cell-based. The procedure: as §1, §2, §5, §6
A short description of data set [5]: Hemolysis assay. It is filed as cell-based. The note with it: human, human erythrocyte suspension, pH 7.4, 10 and 80 µg/mL. The method, then: Human blood samples were obtained from the Banc de Sang i Teixits de Barcelona (Barcelona, Spain) under the Catalan Department of Health. Blood was collected in tubes containing the anticoagulant EDTA-K3. Samples were centrifuged at 3000 rpm and 4 °C for 10 min (Megafuge 2.0 R, Heraeus Instruments, Hanau, Germany) to promote sedimentation, after which plasma was carefully eliminated using a Pasteur pipette. The remaining pellet was washed with PBS (pH 7.4) three times to remove residual leukocytes and platelets while concentrating erythrocytes. After the final wash, the erythrocyte pellet was resuspended in PBS (pH 7.4) at a 1:1 ratio to achieve a final erythrocyte concentration of 8 × 10^9 cells/mL.
The hemolysis assay is used to evaluate the ability of the tested compounds to disrupt erythrocyte membranes. Stock solutions of each compound were prepared in PBS (pH 7.4) at a concentration of 1 mg/mL. Volumes ranging from 10 to 80 μL were transferred into polystyrene tubes, followed by the addition of 25 µL of the erythrocyte suspension, bringing the total volume to 1 mL. The samples were incubated at room temperature under gentle rotation and subsequently centrifuged at 10,000 rpm for 5 min. The absorbance of the resulting supernatants at 540 nm (Shimadzu UV-160A, Shimadzu, Duisburg, Germany) was measured and compared with that of the positive control (erythrocytes hemolyzed with distilled water) and the negative control (erythrocytes suspension in PBS, pH 7.4).
The degree of hemolysis was determined using the following equation:Hemolysis (%) = 100 × (Abs − Abs0)/(Abs100 − Abs0) where Abs, Abs0 and Abs100 are the absorbance of the test samples, of the suspension treated with isotonic phosphate–buffered saline (PBS) and of the suspension of complete hemolysis treated with distilled water, respectively.

Data set [6] concerns HeLa cells. The data set can be described thus: NRU cell viability assay, HeLa. It is filed as cell-based, human. The note with it: Homo sapiens, 24 h. The method, then:
as §1, §2
(§7) The neutral red uptake (NRU) assay is based on the accumulation of dye in the lysosomes of viable cells. After the cells were incubated for 24 h with the corresponding systems, the medium was removed, and the solutions were incubated with the NR dye (Sigma-Aldrich, St. Louis, MO, USA) solution (50 µg/mL) dissolved in the medium, without FBS and without phenol red (Lonza, Verviers, Belgium), for 3 h. Cells were then washed with sterile PBS, followed by the addition of 100 µL of a solution containing 50% absolute ethanol and 1% acetic acid in distilled water to extract the dye. To promote the total dissolution of the dye, plates were placed in a microtiter-plate shaker for 5 min at room temperature. The absorbance of the resulting solutions was measured at 550 nm (Bio-Rad 550 microplate reader, Bio-Rad California, Hercules, CA, USA). Finally, the effect of each treatment was calculated as the percentage of dye uptake by viable cells relative to the control cells (cells without any treatment). Finally, the effect of each treatment was calculated as the percentage of dye retained by viable cells compared with untreated control cells.
as §4

Data set [7] concerns HaCaT cells. The data set can be described thus: MTT cell viability assay, HaCaT. It is filed as cell-based. Particulars: Homo sapiens, 24 h. The procedure: as §1, §2, §3, §4
Data set [8] deals with A431 cells. The data set can be described thus: NRU cell viability assay, A431. It is filed as cell-based, human. The note with it: Homo sapiens, A-431, 24 h. The method, then: as §1, §2, §7, §4
In data set [9] the test system is 3T3 cells. The data set can be described thus: MTT cell viability assay, 3T3. The data set is classed as cell-based. The note with it: Mus musculus, NIH3T3; 3T3, MTT, 24 h. The method, then: as §1, §2, §3, §4
For data set [10], the system named is HaCaT cells. The data set can be described thus: NRU cell viability assay, HaCaT. The note with it: Homo sapiens, 24 h. It is filed as cell-based. The procedure:
as §1, §2
as §7, with “[…]” for “control cells.”

For data set [11], the system named is MCF-7 cells. The data set can be described thus: MTT cell viability assay, MCF-7. It is filed as cell-based. The note with it: Homo sapiens, MCF7; MCF-7, MTT, 24 h. The method, then: as §1, §2, §3, §4
For data set [12], the system named is 3T3 cells. The data set can be described thus: NRU cell viability assay, 3T3. The data set is classed as cell-based. Particulars: Mus musculus, NIH3T3; 3T3, NRU, 24 h. The procedure:
as §1, §2
as §7, with “[…]” for “control cells.”

Data set [13] has as its system MCF-7 cells. The data set can be described thus: NRU cell viability assay, MCF-7. The note with it: Homo sapiens, MCF7; MCF-7, NRU, 24 h. It is filed as cell-based, human. The method, then: as §1, §2, §7, §4
Data set [14] deals with HeLa cells. Nature of the data set: MTT cell viability assay, HeLa. It is filed as cell-based. Particulars: Homo sapiens, 24 h. The procedure:
as §1, §2, §3, §4

In data set [15] the test system is 3T3 fibroblasts. Further details: method as in PMID 40283925. The note with it: normal 3T3 fibroblasts, racemic form; cited from earlier work.
The subject of data set [16] is zebrafish. Further details: method as in PMID 40283925. Particulars: tested previously in zebrafish; cited from earlier work.
Data set [17] relates to A431 tumor cells. Also on record: method as in PMID 40283925. Particulars: racemic form; cited from earlier work.

`CC(C)(C)N1CC(CCl)C(Cl)(Cl)C1=O` (stereo not drawn) [compound 2]: the IC50 in [1] was 100 to 250 µg/mL.
For the compound `C[C@@H](c1ccccc1)N1C[C@H](C)C(Cl)(Cl)C1=O` [epi-3], the IC50 in data set [2] was 170 µg/mL (≈ 624 µM); in [4], greater than 68 µg/mL; in [6], 214 µg/mL (≈ 786 µM); in data set [7], greater than 250 µg/mL; in data set [8], 123 µg/mL (≈ 452 µM); in [9], 68.1 µg/mL (≈ 250 µM). For the same compound, the IC50 was greater than 250 µg/mL in data set [10]; greater than 250 µg/mL in data set [11]; 77.2 µg/mL (≈ 284 µM) in data set [12]; greater than 250 µg/mL in data set [13]; greater than 250 µg/mL in [14]. Moreover, the viability at 24 h, 250 µg/mL in data set [3] is no less than 80%. Also, the cell survival result in data set [4] (NRU, several lines, 250 µg/mL) was “around 60%”. The hemolysis in data set [5] is less than 2%.
In the case of `C[C@H](c1ccccc1)N1C[C@@H](C)C(Cl)(Cl)C1=O` [epi-4], the IC50 in [2] is 177 µg/mL (≈ 651 µM); in data set [4], greater than 100 µg/mL; in data set [6], greater than 250 µg/mL; in data set [7], greater than 250 µg/mL; in data set [8], 61.7 µg/mL (≈ 227 µM); in data set [9] it was 145 µg/mL (≈ 534 µM). Also, the IC50 in data set [10] is greater than 250 µg/mL; in data set [11], greater than 250 µg/mL; in data set [12], 153 µg/mL (≈ 563 µM); in data set [13], greater than 250 µg/mL; in [14], greater than 250 µg/mL. The hemolysis in [5] was less than 2%.
For `CC(C)(C)N1C(=O)C(Cl)(Cl)C1c1ccccc1` (stereo not drawn) [β-lactam 1], the IC50 is greater than 210 µg/mL in data set [15] and 35 to 71 µg/mL in [17]. In addition, the LC50 in data set [16] is listed as 14.9 µg/mL (≈ 54.7 µM).
